Laboratory results from patent publication US9884094B2, “Method of treating diabetes mellitus” (Novo Nordisk A/S, priority 2012, dated 2018).

Legend:
human insulin receptor = human insulin receptor (Homo sapiens, UniProt P06213); assay: Insulin receptor binding, SPA antibody capture assay (Assay I); details: recombinant human insulin receptor, A14 Tyr[125I]-human insulin
Procedure: A total of 100 μl was then added and a dilution series is made from appropriate samples. […] The phases were the then separated by centrifugation for 1 min and the plates counted in a Topcounter. The binding data were fitted using the nonlinear regression algorithm in the GraphPad Prism 2.01 (GraphPad Software, San Diego, Calif.).
Specific antibodies (F12) were produced by monoclonal technique: RBF mice were immunized by injecting 50 μg of purified mIR in FCA subcutaneously followed by two injections with 20 μg of mIR in FIA. […] Supernatants were screened for antibody production in a mIR specific ELISA. Positive wells were cloned and tested in Western blotting.

[1] = Hydrophobicity k′rel by RP-HPLC relative to human insulin; assay type: physicochemical; details: LiChrosorb RP18, isocratic, 40° C., pH 7.3
Procedure: The elution was monitored by following the UV absorption of the eluate at 214 nm. Void time, t0, was found by injecting 0.1 mM sodium nitrate.

Sequence of human insulin receptor (P06213 28-1370 isoform P06213-2 limits assumed): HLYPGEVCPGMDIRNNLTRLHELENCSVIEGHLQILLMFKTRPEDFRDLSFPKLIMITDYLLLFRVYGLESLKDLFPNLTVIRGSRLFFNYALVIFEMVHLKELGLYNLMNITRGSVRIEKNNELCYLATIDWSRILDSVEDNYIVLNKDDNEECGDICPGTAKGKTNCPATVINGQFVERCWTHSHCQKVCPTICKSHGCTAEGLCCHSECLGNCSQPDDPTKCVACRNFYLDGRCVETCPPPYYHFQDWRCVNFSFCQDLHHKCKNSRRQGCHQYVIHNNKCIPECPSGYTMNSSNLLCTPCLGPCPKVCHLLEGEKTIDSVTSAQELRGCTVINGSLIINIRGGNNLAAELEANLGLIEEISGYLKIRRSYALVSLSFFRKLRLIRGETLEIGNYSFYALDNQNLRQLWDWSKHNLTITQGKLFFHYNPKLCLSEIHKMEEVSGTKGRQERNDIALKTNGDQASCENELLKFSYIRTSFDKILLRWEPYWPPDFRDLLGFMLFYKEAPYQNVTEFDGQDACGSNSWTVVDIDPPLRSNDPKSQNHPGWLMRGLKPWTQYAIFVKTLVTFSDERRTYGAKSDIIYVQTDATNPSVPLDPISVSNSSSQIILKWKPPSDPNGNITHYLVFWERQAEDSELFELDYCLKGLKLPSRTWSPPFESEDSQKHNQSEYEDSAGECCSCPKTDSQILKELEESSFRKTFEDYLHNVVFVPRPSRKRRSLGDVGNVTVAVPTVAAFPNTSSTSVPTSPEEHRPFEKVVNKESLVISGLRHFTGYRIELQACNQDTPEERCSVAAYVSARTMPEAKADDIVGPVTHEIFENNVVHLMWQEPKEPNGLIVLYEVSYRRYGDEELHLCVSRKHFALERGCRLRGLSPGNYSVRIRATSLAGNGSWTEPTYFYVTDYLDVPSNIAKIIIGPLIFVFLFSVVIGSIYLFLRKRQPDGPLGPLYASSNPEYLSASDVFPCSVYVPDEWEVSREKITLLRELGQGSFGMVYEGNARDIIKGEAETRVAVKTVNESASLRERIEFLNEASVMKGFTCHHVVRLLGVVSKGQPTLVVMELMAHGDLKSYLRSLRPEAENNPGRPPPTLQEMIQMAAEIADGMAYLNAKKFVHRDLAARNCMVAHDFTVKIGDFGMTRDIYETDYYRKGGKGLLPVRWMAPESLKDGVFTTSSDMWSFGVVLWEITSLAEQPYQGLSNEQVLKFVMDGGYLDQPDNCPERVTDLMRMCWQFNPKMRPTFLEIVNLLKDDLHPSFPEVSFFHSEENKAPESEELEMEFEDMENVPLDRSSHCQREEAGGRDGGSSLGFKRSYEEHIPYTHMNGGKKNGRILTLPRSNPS

| Receptor binding (% of human insulin) (human insulin receptor) | Substance | k′rel (hydrophobic index relative to human insulin) [1] |
| --- | --- | --- |
| 9.4 % of human insulin | N^εB29—[N—(HOOC(CH2)16CO)—N-(carboxymethyl)-β-Ala] des(B30) Human Insulin |  |
| 9.2 % of human insulin | NεB29-(Nα—(HOOC(CH2)16CO)-γ-Glu) des(B30) Human Insulin | 1.15 |

The remaining lines, values behind:

| Substance | Receptor binding (% of human insulin) (human insulin receptor) | k′rel (hydrophobic index relative to human insulin) [1] |
| --- | --- | --- |
| N^εB29—(N-(L-Sar-OC(CH2)13CO-γ-L-Glu) des(B30) Human Insulin | 20 % of human insulin | 0.63 |
| N^εB29—(N^α—(HOOC(CH2)16CO)-γ-Glu-N-(γ-Glu)) des(B30) Human Insulin |  | 1.17 |
| N^εB29—(N-(L-Glu-OC(CH2)14CO—) des(B30) Human Insulin | 9.4 % of human insulin | 1.17 |
| N^εB29—(N—(HOOC(CH2)14CO-ε-L-LysCO—) des(B30) Human Insulin | 5.7 % of human insulin | 0.90 |
